Experimental findings from US8476455B2, “1-N-phenyl-amino-1h-imidazole derivatives and pharmaceutical compositions containing them” (Laboratoire Theramex, priority 2003, dated 2013) are described below.

The test system of one assay is steroid sulfatase. Nature of the assay: Anti uterotrophic/anti steroid sulfatase activity in vivo. Further details: species or system rat. As to the method: Wistar female rats were ovariectomized and left to rest for 4 weeks. Prior to treatment, the absence of cyclicity was checked by vaginal smears. Animals were supplemented with estrone sulfate (EIS) at 50 μg/kg/day s.c., alone or combined with oral administration of potential sulfatase inhibitors, at 1 mg/kg/day for 4 days. The uteri were removed, freed of adjacent tissue and wet weighed (Table 3).
Estrone sulfatase activity is measured according to the method described by Purohit et al., with slight modifications. Briefly, uteri were thawed, weighed and homogenized. Aliquots of the supernatant were treated with dextran-coated charcoal and assayed for sulfatase. E1S activity is assessed after 30 min of incubation with 5 nM of ^3H-E1S and 20 μM of unlabelled E1S as substrate. Estrone sulfatase activity is expressed as pmol/h/mg protein and reported as percentage of inhibition vs E1S; for uterus weights, results are expressed as % of inhibition of the E1S induced stimulation

The target of a further assay is T1, human steroid sulfatase (Homo sapiens, UniProt P08842).
T1 construct: The JEG-3 cell line is intrinsically very rich in human estrone sulfatase; endogenous in cells; host or cells: JEG-3 (human placental choriocarcinoma)
T1 sequence (P08842 22-583): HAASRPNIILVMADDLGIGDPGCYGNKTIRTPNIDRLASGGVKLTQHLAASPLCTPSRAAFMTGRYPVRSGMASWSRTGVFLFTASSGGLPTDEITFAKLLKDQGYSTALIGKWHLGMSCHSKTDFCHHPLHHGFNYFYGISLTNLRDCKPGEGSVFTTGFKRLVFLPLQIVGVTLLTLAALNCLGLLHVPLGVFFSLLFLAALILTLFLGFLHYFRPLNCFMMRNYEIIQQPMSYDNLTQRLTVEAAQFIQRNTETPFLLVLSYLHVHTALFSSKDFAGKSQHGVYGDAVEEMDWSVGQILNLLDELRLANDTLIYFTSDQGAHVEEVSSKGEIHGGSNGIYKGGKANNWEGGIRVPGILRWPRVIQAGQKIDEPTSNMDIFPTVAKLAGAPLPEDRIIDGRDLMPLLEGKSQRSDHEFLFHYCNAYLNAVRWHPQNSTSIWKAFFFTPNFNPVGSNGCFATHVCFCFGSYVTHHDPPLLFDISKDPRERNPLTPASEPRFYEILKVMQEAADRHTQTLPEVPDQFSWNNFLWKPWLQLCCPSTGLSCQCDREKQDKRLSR
Nature of the assay: Dual aromatase and steroid sulfatase activities in JEG-3 cells: sulfatase readout. In kind it is cell-based. The note with it: footnote c: dual aromatase and sulfatase activity, nd: not detected, read-out: Sulfatase activity IC50 (nM) ± S.E.M. As to the method:
The JEG-3 cell line is intrinsically very rich in human estrone sulfatase and therefore is a useful biological system to evaluate new steroid sulfatase inhibitors in vitro. Assays were carried out with cells in logarithmic growth phase on 96-well microplates. 24 h before studies, cells were seeded in decomplemented fetal calf serum (dFCS) supplemented medium. The medium was removed 24 h later and cells were rinsed with PBS to eliminate any trace of dFCS. Then, ^3H-E1S was added in dFCS free medium, followed by test compounds at concentrations ranging from 10^−12 M to 10^−5 M. After 4 h of treatment, the medium was transferred into 96-deep-well microplates and centrifuged at 200×g for 10 min to pellet cells before toluene extraction. A fraction of the medium was used for toluene extraction in order to separate the conjugated substrate from non-conjugated products. The radioactivity in the toluene phase was measured by liquid scintillation counting. In parallel, after cell solubilization in a ethylenediamine tetraacetate solution, DNA content was measured by a standard fluorimetric method using the Hoechst 33258 fluorochrome. Finally, estrone sulfatase activity was expressed in pmoles of ^3H-E1+^3H-E2 formed/4 hours/mg DNA and estrone sulfatase inhibition as a percentage of control activity without inhibitor.
In order to evaluate the inhibitory potency of DASI compounds in parallel on both human aromatase and steroid sulfatase activities, a new in vitro model was set up using JEG-3 cells. The experimental conditions of the steroid sulfatase model previously described was adopted with slight modifications: the presence of the two substrates ^3-HE1S and 1β-^3H-androstenedione into the medium and an incubation period of 2 hours. Results were expressed in pmoles of product formed (^3H-E1+^3H-E2 or ^3H2O)/2 hours/mg DNA (Table 1).

Where only a bound is given, the exact number is not on record here.

Usually IC50 stands for the concentration that gives 50% inhibition. For the compound `Cl.N#Cc1ccc(N(Cc2ccc(OS(N)(=O)=O)c(Br)c2)n2ccnc2)cc1` [Ex 45, Sulfamic acid 2-bromo-4-{[N-(4-cyanophenyl)-N-(1H-imidazol-1yl)amino]methyl}phenyl ester, hydrochloride], the “inhibition of E1S (sulfatase) concluded from uterus weight inhibition” value in the assay with steroid sulfatase (concluded from linear correlation between sulfatase inhibition and uterus weight inhibition (WO 2004/101545)) is over 90%. Further, the “% inhibition (uterus weight)” value in the assay on steroid sulfatase (ovariectomized Wistar female rats, E1S 50 μg/kg/day s.c., oral 1 mg/kg/day for 4 days, % of inhibition of the E1S induced stimulation) came out at 70%. For the same compound, on human steroid sulfatase, the half-inhibitory concentration (IC50) is about 10 nM.
